The text below walks through data of paper PMC8730602 (2022).

The subject of assay [1] is thiolated cortisol aptamer (DNA, aptamer) CGACCGGTCTGGGGACCCTGTCTGGGTGTGTGGGTAGTAGGTCG
Description: aptamer field-effect transistor. The following applies: artificial sweat (Table S5), immobilised aptamer; for binding: negligible response at physiological concentrations versus 10 nM cortisol.

In assay [2] the test system is cortisol aptamer, fluorescein at 5' end (DNA, aptamer) CTCTCGGGACGACCGGTCTGGGGACCCTGTCTGGGTGTGTGGGTAGTAGGTCGTCCC
Description: competitive structure-switching fluorescence (FAM/dabcyl). The following applies: 154 mM NaCl, 1.058 mM KH2PO4, 2 mM MgCl2; PBS pH 7.3-7.5; dabcyl quencher strand GGTCGTCCCGAGAG displaced, aptamer:quencher 1:5.

The test system of assay [3] is thiolated serotonin aptamer (DNA, aptamer) CGACTGGTAGGCAGATAGGGGAAGCTGATTCGATGCGTGGGTCG
As to the kind of experiment: aptamer field-effect transistor. The following applies: artificial sweat (Table S5); immobilised aptamer; response over 10 fM to 100 µM.

Molecules are shown by their SMILES.

On to `CC(=O)[C@H]1CC[C@H]2[C@@H]3CCC4=CC(=O)CC[C@]4(C)[C@H]3CC[C@]12C`, for which the binding entry in assay [1] is reported as “no”.

Turning to `C[C@]12CCC(=O)C=C1CC[C@@H]1[C@@H]2[C@@H](O)C[C@@]2(C)[C@H]1CC[C@]2(O)C(=O)CO`, the Kd is listed as ~ 30 pM in assay [1] (on-FET, gate-voltage sweep, apparent) and 500 nM in assay [2].

With `C[C@]12CC[C@H]3[C@@H](CCC4=CC(=O)CC[C@@]43C)[C@@H]1CC[C@@H]2O`, the binding result in assay [1] is on record as “no”.

Turning to `NCCc1c[nH]c2ccc(O)cc12`, the binding entry is “no” in assay [1] and “yes” in assay [3].
